Measurements reported in paper PMC9661477, “New Dual P-Glycoprotein (P-gp) and Human Carbonic Anhydrase XII (hCA XII) Inhibitors as Multidrug Resistance (MDR) Reversers in Cancer Cells” (Journal of Medicinal Chemistry, 2022).
Where two headings read alike, the source gives them in different places.

Experiments:
[1] = molecular target: hCA I (Homo sapiens, UniProt P00915); experiment: stopped-flow CO2 hydrase assay, hCA I; details: read-out: Ki hCA I; stopped-flow technique, mean from three different assays
Source text: (§1) An SX.18MV-R Applied Photophysics (Oxford, U.K.) stopped-flow instrument has been used to assay the catalytic/inhibition of various CA isozymes.[38] […] The inhibition constants were obtained by nonlinear least-squares methods using the Cheng–Prusoff equation, as reported earlier,[32] and represent the mean from at least three different determinations.

[2] = molecular target: hCA IX (Homo sapiens, UniProt Q16790); experiment: stopped-flow CO2 hydrase assay, hCA IX
Source text: as §1

[3] = molecular target: hCA II (Homo sapiens, UniProt P00918); experiment: stopped-flow CO2 hydrase assay, hCA II; details: read-out: Ki hCA II; stopped-flow technique, mean from three different assays
Source text: as §1

[4] = read-out: Ki hCA IX, stopped-flow technique, mean from three different assays

Sequence of hCA I (P00915 whole entry): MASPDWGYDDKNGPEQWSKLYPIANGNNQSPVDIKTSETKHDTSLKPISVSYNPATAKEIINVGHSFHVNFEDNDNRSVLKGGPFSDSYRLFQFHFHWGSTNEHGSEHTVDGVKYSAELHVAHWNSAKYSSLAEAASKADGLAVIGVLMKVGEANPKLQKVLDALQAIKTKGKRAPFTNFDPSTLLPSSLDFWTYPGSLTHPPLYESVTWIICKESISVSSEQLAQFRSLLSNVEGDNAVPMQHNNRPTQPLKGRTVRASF

Ki [1] [µM]	Ki [2, 4] [µM]	Ki [3] [µM]	Ki [2] [µM]	SMILES
> 10	0.148	> 10	–	COc1cc(/C=C/C(=O)OCCCN(CCCCCCOC(=O)c2c3ccccc3cc3ccccc23)CCCOc2ccc3ccc(=O)oc3c2)cc(OC)c1OC [Compound 16, (E)-6-((3-((2-Oxo-2H-chromen-7-yl)oxy)propyl)(3-((3-(3,4,5-trimethoxyphenyl)acryloyl)oxy)propyl)amino)hexyl Anthracene-9-carboxylate]
> 10	0.0541	> 10	–	COc1cc(C(=O)OCCCCCCN(CCCOC(=O)c2c3ccccc3cc3ccccc23)CCCOc2ccc3ccc(=O)oc3c2)cc(OC)c1OC [Compound 15, 3-((3-((2-Oxo-2H-chromen-7-yl)oxy)propyl)(6-((3,4,5-trimethoxybenzoyl)oxy)hexyl)amino)propyl Anthracene-9-carboxylate]
> 10	0.0385	> 10	–	COc1cc(C(=O)OCCCCCCCN(CCCOC(=O)c2c3ccccc3cc3ccccc23)CCCOc2ccc3ccc(=O)oc3c2)cc(OC)c1OC [Compound 24, 3-((3-((2-Oxo-2H-chromen-7-yl)oxy)propyl)(7-((3,4,5-trimethoxybenzoyl)oxy)heptyl)amino)propyl Anthracene-9-carboxylate]
> 10	0.0142	> 10	–	COc1cc(/C=C/C(=O)OCCCCCCCN(CCCOC(=O)c2c3ccccc3cc3ccccc23)CCCOc2ccc3ccc(=O)oc3c2)cc(OC)c1OC [Compound 21, (E)-3-((3-((2-Oxo-2H-chromen-7-yl)oxy)propyl)(7-((3-(3,4,5-trimethoxyphenyl)acryloyl)oxy)heptyl)amino)propyl Anthracene-9-carboxylate]
> 10	0.0438	> 10	–	COc1cc(/C=C/C(=O)OCCCN(CCCCCCCOC(=O)c2cc(OC)c(OC)c(OC)c2)CCCOc2ccc3ccc(=O)oc3c2)cc(OC)c1OC [Compound 22, (E)-7-((3-((2-Oxo-2H-chromen-7-yl)oxy)propyl)(3-((3-(3,4,5-trimethoxyphenyl)acryloyl)oxy)propyl)amino)heptyl 3,4,5-Trimethoxybenzoate]
> 10	0.0711	> 10	–	COc1cc(/C=C/C(=O)OCCCN(CCCCCCCOC(=O)c2c3ccccc3cc3ccccc23)CCCOc2ccc3ccc(=O)oc3c2)cc(OC)c1OC [Compound 25, (E)-7-((3-((2-Oxo-2H-chromen-7-yl)oxy)propyl)(3-((3-(3,4,5-trimethoxyphenyl)acryloyl)oxy)propyl)amino)heptyl Anthracene-9-carboxylate]
> 10	0.167	> 10	–	O=C(OCCCCCCN(CCCOC(=O)c1c2ccccc2cc2ccccc12)CCCOc1ccc2ccc(=O)oc2c1)c1c2ccccc2cc2ccccc12 [Compound 18, 3-((6-((Anthracene-9-carbonyl)oxy)hexyl)(3-((2-oxo-2H-chromen-7-yl)oxy)propyl)amino)propyl Anthracene-9-carboxylate]
> 10	0.0278	> 10	–	COc1cc(/C=C/C(=O)OCCCCCCCN(CCCOC(=O)/C=C/c2cc(OC)c(OC)c(OC)c2)CCCOc2ccc3ccc(=O)oc3c2)cc(OC)c1OC [Compound 19, (E)-7-((3-((2-Oxo-2H-chromen-7-yl)oxy)propyl)(3-(((E)-3-(3,4,5-trimethoxyphenyl)acryloyl)oxy)propyl)amino)heptyl 3-(3,4,5-Trimethoxyphenyl)acrylate]
> 10	0.0052	> 10	< 0.01	COc1cc(/C=C/C(=O)OCCCCCCCN(CCCOC(=O)c2cc(OC)c(OC)c(OC)c2)CCCOc2ccc3ccc(=O)oc3c2)cc(OC)c1OC [Compound 20, (E)-3-((3-((2-Oxo-2H-chromen-7-yl)oxy)propyl)(7-((3-(3,4,5-trimethoxyphenyl)acryloyl)oxy)heptyl)amino)propyl 3,4,5-Trimethoxybenzoate]
> 10	0.123	> 10	–	COc1cc(C(=O)OCCCN(CCCCCCOC(=O)c2c3ccccc3cc3ccccc23)CCCOc2ccc3ccc(=O)oc3c2)cc(OC)c1OC [Compound 17, 6-((3-((2-Oxo-2H-chromen-7-yl)oxy)propyl)(3-((3,4,5-trimethoxybenzoyl)oxy)propyl)amino)hexyl Anthracene-9-carboxylate]
> 10	0.0183	> 10	–	COc1cc(C(=O)OCCCCCCCN(CCCOC(=O)c2cc(OC)c(OC)c(OC)c2)CCCOc2ccc3ccc(=O)oc3c2)cc(OC)c1OC [Compound 23, 7-((3-((2-Oxo-2H-chromen-7-yl)oxy)propyl)(3-((3,4,5-trimethoxybenzoyl)oxy)propyl)amino)heptyl 3,4,5-Trimethoxybenzoate]
> 10	0.0413	> 10	–	COc1cc(C(=O)OCCCN(CCCCCCCOC(=O)c2c3ccccc3cc3ccccc23)CCCOc2ccc3ccc(=O)oc3c2)cc(OC)c1OC [Compound 26, 7-((3-((2-Oxo-2H-chromen-7-yl)oxy)propyl)(3-((3,4,5-trimethoxybenzoyl)oxy)propyl)amino)heptyl Anthracene-9-carboxylate]

Continued, molecule first:

SMILES	Ki [1] [µM]	Ki [2, 4] [µM]	Ki [3] [µM]	Ki [2] [µM]
O=C(OCCCCCN(CCCOC(=O)c1c2ccccc2cc2ccccc12)CCCOc1ccc2ccc(=O)oc2c1)c1c2ccccc2cc2ccccc12 [Compound 9, 3-((5-((Anthracene-9-carbonyl)oxy)pentyl)(3-((2-oxo-2H-chromen-7-yl)oxy)propyl)amino)propyl Anthracene-9-carboxylate]	> 10	0.137	> 10	–
COc1cc(/C=C/C(=O)OCCCCCCN(CCCOC(=O)/C=C/c2cc(OC)c(OC)c(OC)c2)CCCOc2ccc3ccc(=O)oc3c2)cc(OC)c1OC [Compound 10, (E)-6-((3-((2-Oxo-2H-chromen-7-yl)oxy)propyl)(3-(((E)-3-(3,4,5-trimethoxyphenyl)acryloyl)oxy)propyl)amino)hexyl 3-(3,4,5-Trimethoxyphenyl)acrylate]	> 10	0.0081	> 10	< 0.01
COc1cc(/C=C/C(=O)OCCCCCN(CCCOC(=O)c2cc(OC)c(OC)c(OC)c2)CCCOc2ccc3ccc(=O)oc3c2)cc(OC)c1OC [Compound 2, (E)-3-((3-((2-Oxo-2H-chromen-7-yl)oxy)propyl)(5-((3-(3,4,5-trimethoxyphenyl)acryloyl)oxy)pentyl)amino)propyl 3,4,5-Trimethoxybenzoate]	> 10	0.0242	> 10	–
COc1cc(/C=C/C(=O)OCCCCCN(CCCOC(=O)/C=C/c2cc(OC)c(OC)c(OC)c2)CCCOc2ccc3ccc(=O)oc3c2)cc(OC)c1OC [Compound 1, (E)-5-((3-((2-Oxo-2H-chromen-7-yl)oxy)propyl)(3-(((E)-3-(3,4,5-trimethoxyphenyl)acryloyl)oxy)propyl)amino)pentyl 3-(3,4,5-Trimethoxyphenyl)acrylate]	> 10	0.0395	> 10	–
COc1cc(/C=C/C(=O)OCCCN(CCCCCOC(=O)c2c3ccccc3cc3ccccc23)CCCOc2ccc3ccc(=O)oc3c2)cc(OC)c1OC [Compound 7, (E)-5-((3-((2-Oxo-2H-chromen-7-yl)oxy)propyl)(3-((3-(3,4,5-trimethoxyphenyl)acryloyl)oxy)propyl)amino)pentyl Anthracene-9-carboxylate]	> 10	0.104	> 10	–
COc1cc(/C=C/C(=O)OCCCCCCN(CCCOC(=O)c2c3ccccc3cc3ccccc23)CCCOc2ccc3ccc(=O)oc3c2)cc(OC)c1OC [Compound 12, (E)-3-((3-((2-Oxo-2H-chromen-7-yl)oxy)propyl)(6-((3-(3,4,5-trimethoxyphenyl)acryloyl)oxy)hexyl)amino)propyl Anthracene-9-carboxylate]	> 10	0.0268	> 10	–
COc1cc(/C=C/C(=O)OCCCN(CCCCCOC(=O)c2cc(OC)c(OC)c(OC)c2)CCCOc2ccc3ccc(=O)oc3c2)cc(OC)c1OC [Compound 4, (E)-5-((3-((2-Oxo-2H-chromen-7-yl)oxy)propyl)(3-((3-(3,4,5-trimethoxyphenyl)acryloyl)oxy)propyl)amino)pentyl 3,4,5-Trimethoxybenzoate]	> 10	0.0588	> 10	–
COc1cc(C(=O)OCCCCCN(CCCOC(=O)c2c3ccccc3cc3ccccc23)CCCOc2ccc3ccc(=O)oc3c2)cc(OC)c1OC [Compound 6, 3-((3-((2-Oxo-2H-chromen-7-yl)oxy)propyl)(5-((3,4,5-trimethoxybenzoyl)oxy)pentyl)amino)propyl Anthracene-9-carboxylate]	> 10	0.0362	> 10	–
COc1cc(C(=O)OCCCN(CCCCCOC(=O)c2c3ccccc3cc3ccccc23)CCCOc2ccc3ccc(=O)oc3c2)cc(OC)c1OC [Compound 8, 5-((3-((2-Oxo-2H-chromen-7-yl)oxy)propyl)(3-((3,4,5-trimethoxybenzoyl)oxy)propyl)amino)pentyl Anthracene-9-carboxylate]	> 10	0.0937	> 10	–
COc1cc(/C=C/C(=O)OCCCN(CCCCCCOC(=O)c2cc(OC)c(OC)c(OC)c2)CCCOc2ccc3ccc(=O)oc3c2)cc(OC)c1OC [Compound 13, (E)-6-((3-((2-Oxo-2H-chromen-7-yl)oxy)propyl)(3-((3-(3,4,5-trimethoxyphenyl)acryloyl)oxy)propyl)amino)hexyl 3,4,5-Trimethoxybenzoate]	> 10	0.0717	> 10	–
COc1cc(/C=C/C(=O)OCCCCCCN(CCCOC(=O)c2cc(OC)c(OC)c(OC)c2)CCCOc2ccc3ccc(=O)oc3c2)cc(OC)c1OC [Compound 11, (E)-3-((3-((2-Oxo-2H-chromen-7-yl)oxy)propyl)(6-((3-(3,4,5-trimethoxyphenyl)acryloyl)oxy)hexyl)amino)propyl 3,4,5-Trimethoxybenzoate]	> 10	0.0502	> 10	–
